Experimental findings from US9896659B2, “Methods, kits, and compositions for stem cell self-renewal” (STOWERS INSTITUTE FOR MEDICAL RESEARCH, priority 2011, dated 2018) are described below.

Test [1] relates to Lin^−, CD34^+, CD38^− cells. In words: Long-term ex vivo culture of human umbilical cord blood MNCs, Lin^− CD34^+ CD38^− cells by flow cytometry. To be noted: 6 weeks culture in STL media; 500 nM 5-Aza-2′-deoxycytidine or 1 μM SR1; relative to STL base media. The class given is cell-based. The protocol:
Cells were cultured in STL media, which consists of the following: StemSpan SFEM media (Stem Cell Technologies, Vancouver, Canada) supplemented with 10 μg/ml heparin (Sigma, St. Louis, Mo.), 0.5× Penicillin/Streptomycin (Sigma, St. Louis, Mo.), 10 ng/ml recombinant human (rh) SCF, 20 ng/ml rh-Tpo (Biovision, Inc., Mountain View, Calif.), and 2 mM lithium chloride (LiCl).
Mononuclear cells (MNCs) were isolated from human umbilical cord blood (UCB) and cultured in STL media (activating both Wnt/β-catenin and PI3K/Akt signaling), STL+StemRegenin1 (SR1), or STL+DNMT inhibitor (DNMTi) and analyzed by flow cytometry. […] 1 μM SR1 (Cellagen Technologies, San Diego, Calif.) or 500 nM of DNMTi (5-Aza-2′-deoxycytidine, A3656, Sigma, St. Louis, Mo.) was added where indicated. DNMTi was prepared fresh in DMSO and added from the start of the culture. 24 hours later, about 75% of media was changed using fresh DNMT inhibitor. 60 hours after culture began, no additional DNMT inhibitor was added during media changes.
For orientation: Flow cytometry measures light scatter and fluorescence of single cells or particles in a stream.

The test system of a further test is NSG recipients. The test can be described thus: Repopulation of NSG recipients by cultured human UCB cells. The format is in vivo. To be noted: STL media + 15 nM Decitabine, brief exposure; 12 weeks post-secondary transplant. How it is done: 600 HSCs (lineage negative, CD34^+, CD38^− cells) were sorted from human UCB and transplanted into sub-lethally irradiated (3.25 Gy) NSG recipients or cultured for 2 weeks in STL media prior to transplantation. MNCs containing 600 HSCs were also cultured equivalently and transplanted. The uncultured MNC group is not shown due to morbidity of transplant recipients.
MNCs were isolated from human UCB and cultured in STL media or STL media with the DNA methyltransferase inhibitor (DNMTi), Decitabine, added at the concentration of 15 nM. DNMTi was prepared fresh in DMSO and added 12 hours after the start of the culture. Media containing Decitabine was replaced with freshly prepared media every 24 hours two more times. 72 hours after adding Decitabine initially, Decitabine was removed from the culture.
For the transplant experiments, MNCs isolated from human UCB were cultured in media activating the PI3K/Akt pathway (ST media), ST media with StemRegenin1 (SR1), media activating both the PI3K/Akt and Wnt/β-catenin pathways (STL media), or STL media+DNMTi for 14 days. The cultured progeny of 2×10^5 MNCs per recipient were transplanted into sub-lethally irradiated (3.25 Gy) NSG recipients. […] 12 weeks post-secondary transplant, human donor cells repopulation was determined (FIG. 36B).

The test system of test [2] is LSK Flk2^− cells. In words: 10-day culture of bone marrow MNCs with PI3K inhibitor, CHIR99021 or without insulin, expansion of LSK Flk2^− cells. The format is cell-based, mouse.
Test [3] deals with LSK Flk2^− cells. The test can be described thus: Ex vivo culture of sorted LSK Flk2^− cells with GSK-3β and PTEN inhibitors, expansion by FACS. The class given is cell-based, mouse. How it is done:
LSK or LSK Flk2^− cells were sorted into 96-well U-bottom tissue culture plates at 100 cells/well with 200 μl media/well. Cells were incubated at 37° C., 5% O2, 5% CO2 (balance N2) for the indicated number of days. One-half total volume of media (see Table 1, below for the base media) was carefully pipetted from the top and replaced with fresh media every other day.
One hundred LSK Flk2^− cells were sorted from wild-type (C57Bl/6) mice and cultured in (1) media, (2) media+1 μM CHIR99021 (a GSK-3β inhibitor, a gift from Dr. Sheng Ding), (3) media+200 nM Dipotassium Bis-peroxo(picolinato)oxovanadate (BpV(pic), a PTEN inhibitor, available from Calbiochem, Cat. No. 203705), (4) media+1 μM CHIR99021+200 nM BpV(pic), (5) media+200 nM Shikonin (also a PTEN inhibitor, available from Calbiochem, Cat. No. 565850), and (6) media+200 nM Shikonin+1 μM CHIR99021. (FIGS. 3B-C). Cells were cultured as described above. Cells were examined at 17 days of culture (FIG. 3B, original magnification 100×) and 23 days (FIG. 3C, original magnification 40×).
LSK Flk2^− cells at 28 days culture in the indicated media conditions were examined (FIG. 3D, original magnification 200×).
FACS analysis of 28 day LSK Flk2^− cells cultured in media+BpV(pic)+CHIR99021 (FIG. 3E) was performed. Cells were pre-gated on live, lineage negative cells.
Fold expansion of LSK Flk2^− cells after 28 days culture in (1) media, (2) media+BpV(pic), (3) media+CHIR99021, and (4) media+CHIR99021+BpV(pic) were analyzed.
Cells cultured for 9 days in (1) media, (2) media+BpV(pic) (200 nM), (3) media+CHIR99021 (100 nM), and (4) media+CHIR99021 (100 nM)+BpV(pic) (200 nM) were re-sorted for LSK Flk2^− cells, and fold expansion of LSK Flk2^− cells after 9 days culture in the indicated conditions was determined (FIG. 3I).
FACS analysis was performed on 9 day LSK Flk2^− cells cultured in media+BpV(pic) (200 nM)+CHIR99021 (100 nM) (FIG. 3J). Cells were pre-gated on live, lineage negative cells.

In test [4] the test system is lethally irradiated (10 Gy) CD45.1^+ recipient mice. The test can be described thus: Transplantation of cultured sorted LSK Flk2^− cells into lethally irradiated recipients, donor engraftment. The format is in vivo, mouse. To be noted: 28-day cultures, 1000 re-sorted LSK Flk2^− cells + 2×10^5 competitor cells; peripheral blood 4 weeks post-transplant.
Excerpt: Cells were harvested from the wells prior to transplantation by pipetting up and down several times before transferring to a fresh tube. Residual was then collected by adding more media and repeating. Cells were washed in DMEM (Invitrogen, Cat. No. 31053) without phenol red and added to the appropriate number of whole bone marrow rescue cells from a congenic donor (for 200,000 rescue cells+1,000 re-sorted LSK Flk2^− cells (FIGS. 3F-H) or the non-adherent product of 10 days culture of 100 LSK Flk2^− cultured cells (FIGS. 3I-K) per mouse as indicated). […]
Repopulation was measured at 4 weeks post-transplant by collection of peripheral blood, red blood cell lysis, and staining of CD45.1 (recipient) compared to CD45.2 (donor) engraftment using antibodies purchased from eBiosciences (FITC conjugated CD45.2 (Cat. No. 11-0454-85) and PE-Cy5 conjugated CD45.1 (Cat. No. 15-0453-82)). […] Multi-lineage reconstitution was determined by CD3, B220 (for lymphoid) and Gr1, Mac-1 (for myeloid), as described above.
Cells cultured for 28 days in (1) media, (2) media+BpV(pic), (3) media+CHIR99021 and (4) media+CHIR99021 (1 μM)+BpV(pic) (200 nM) were re-sorted for LSK Flk2^− cells. […] At 4 weeks post-transplant, peripheral blood was analyzed for donor (FIG. 3G) and multi-lineage (FIG. 3H) engraftment. […]
The test system of test [5] is LSK Flk2^− cells. In words: 14-day ex vivo expansion of bone marrow MNCs in ST media with or without GSK3β inhibitor, FACS. The format is cell-based, mouse. To be noted: Tpo or SCF alone; data not shown.

With `Nc1ncn([C@H]2C[C@H](O)[C@@H](CO)O2)c(=O)n1` [Decitabine, 5-Aza-2′-deoxycytidine], the “Human UCB-derived HSC expansion in long-term ex vivo culture” value in test [1] is reported as “human UCB-derived HSC expansion is enhanced”. In addition, the “Expansion of functional, primitive human HSCs in serial transplant recipients” value in the test with NSG recipients is reported as “further enhanced”.

`Cn1c(=O)n(-c2ccc(C(C)(C)C#N)cc2)c2c3cc(-c4cnc5ccccc5c4)ccc3ncc21` [NVP-BEZ235]: in the test on LSK Flk2^− cells [2] (10 days culture with 250 nM CHIR99021 plus PI3K inhibitor), the “Effect on the ability of CHIR99021 to enhance expansion” value was “ability of CHIR99021 to enhance expansion was negated by PI3K inhibition”. Further, the “Expansion of LSK Flk2^− cells” value with LSK Flk2^− cells [2] (10 days culture, 250 nM CHIR99021, NVP-BEZ235 at indicated concentrations) is reported as “decreased the ability of LSK Flk2^− cells to expand in a dose-dependent manner”.

Regarding `CC(C)n1cnc2c(NCCc3ccc(O)cc3)nc(-c3csc4ccccc34)nc21` [SR1], the “Human UCB-derived HSC expansion in long-term ex vivo culture” value in test [1] is on record as “did not enhance overall HSC expansion in long-term cultures”.

For “Dipotassium Bis-peroxo(picolinato)oxovanadate [BpV(pic)]”, the “Expansion of LSK cells compared to control (photographs)” value with LSK Flk2^− cells [3] (17 and 23 days culture, 1 μM CHIR99021, 200 nM BpV(pic)) is listed as “greater expansion of LSK cells”. Also, the “Expansion of LSK Flk2^− cells compared to media without inhibitor” value with LSK Flk2^− cells [3] (28 days culture) is recorded as “significant expansion”. Besides, the “Mice showing >1% engraftment” value in test [4] is reported as 0/10.

On to “SCF: recombinant Stem Cell Factor, cytokine”, for which, in the test on LSK Flk2^− cells [5], the “HSC expansion with a single cytokine alone” value is on record as “could not expand HSCs in culture”.

Regarding “Tpo: recombinant Thrombopoietin, cytokine”, the “HSC expansion with a single cytokine alone” value in the test on LSK Flk2^− cells [5] is given as “could not expand HSCs in culture”.

Turning to “insulin: recombinant human insulin in StemSpan media, a major stimulator of the PI3K/Akt pathway”, in the test with LSK Flk2^− cells [2] (ST media with or without insulin, 10 days), the “Dependence of phenotypic HSC expansion on medium component” value is “expansion of phenotypic HSCs is dependent on insulin”.
